Measurements reported in US10029993B2, “Disubstituted 1, 2, 4-triazine compound” (MITSUBISHI TANABE PHARMA CORPORATION, priority 2014, dated 2018).
pIC50: −log10 of the molar value.

Target: human CYP11B2 (Homo sapiens (Human), UniProt P19099)
Assay: Inhibitory effect on hCYP11B2 (aldosterone production by mitochondrial fraction of V79 cells stably expressing human CYP11B2, HTRF)
Assay type: biochemical
Settings: 0.5 μmol/L deoxycorticosterone, 150 μmol/L NADPH, 1.5-2 hours at room temperature
Method: Experimental Example 1 (Inhibitory Effect on hCYP11B2)
The pcDNA3.1-human CYP11B2 plasmid was transfected into a Chinese hamster lung fibroblast V79 cell line to produce a cell line stably expressing human CYP11B2 gene.
The cells were cultured and grown in the Dulbecco's modified Eagle's/Ham's medium supplemented with 10% fetal bovine serum and 1% G418 disulfate solution under the environment of 37° C., 95% air, and 5% CO2, and the grown cells were harvested.
Then, the cells were fractionated to obtain mitochondria by reference to a method described in Chabre et al. JCE 86 M 85 (11) 4060-68, 2000. In particular, the cells suspended in a 5 mmol/L Tris-HCl buffer (pH 7.4) containing 250 mmol/L sucrose were homogenized in a Teflon (Registered Trademark) Potter Elvehjem homogenizer, and then the suspension was centrifuged (800×g, 15 min.). The supernatant was separated and again centrifuged (10000×g, 15 min.) to obtain a pellet (mitochondrial fraction).
The mitochondrial fraction diluted with a buffer containing 10 mmol/L KH2PO4, 10 mmol/L Tris, 20 mmol/L KCl, 25 mmol/L sucrose, 5 mmol/L MgCl2, and 0.05% bovine serum albumin was dispensed to a 96-well plate. 0.5 μmol/L Deoxycorticosterone, 150 μmol/L NADPH and a compound of each concentration were added to each well, and incubated for 1.5-2 hours at room temperature to produce aldosterone. An amount of the produced aldosterone in the incubated solution was determined by using HTRF (Homogeneous Time Resolved Fluorescence) method.
IC 50 (nmol/L) was calculated by analyzing the aldosterone production inhibition rate (%) of each concentration of compounds by non-linear regression to a logistic curve.

Chain of human CYP11B2 (P19099 25-503): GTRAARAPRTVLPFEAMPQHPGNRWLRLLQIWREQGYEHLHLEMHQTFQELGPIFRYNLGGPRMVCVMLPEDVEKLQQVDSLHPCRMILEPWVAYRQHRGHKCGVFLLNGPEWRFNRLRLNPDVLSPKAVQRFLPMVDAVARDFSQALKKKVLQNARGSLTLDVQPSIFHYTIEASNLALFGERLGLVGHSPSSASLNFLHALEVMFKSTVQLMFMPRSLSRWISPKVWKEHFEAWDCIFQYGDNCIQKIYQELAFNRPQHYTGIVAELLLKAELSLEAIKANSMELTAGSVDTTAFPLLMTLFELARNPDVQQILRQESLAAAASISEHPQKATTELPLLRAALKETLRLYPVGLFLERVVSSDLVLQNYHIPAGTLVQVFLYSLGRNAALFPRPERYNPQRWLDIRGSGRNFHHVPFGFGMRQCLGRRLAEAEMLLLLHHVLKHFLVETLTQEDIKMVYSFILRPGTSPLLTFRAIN

SMILES | pIC50
Clc1ccc(CNc2cnnc(N3CCOCC3)n2)cc1 [Example 257, 5-(4-chlorobenzyl) amino-3-morpholino-1,2,4-triazine] | 7.89
Clc1ccc(-c2cnnc(N3CCN(C4CCOCC4)CC3)n2)cc1 [Example 178] | 8.30
CN(C)[C@H]1CC[C@H](NC(=O)CN2CCN(c3nncc(-c4cc(F)ccc4F)n3)CC2)CC1 [Example 83] | 8.12
O=C(CN1CCN(c2nncc(-c3ccc(F)cc3)n2)CC1)NC1CN(C(=O)C2(O)CC2)C1 [Example 141] | 7.96
Cc1nc[nH]c1CN1CCC(NC(=O)CN2CCN(c3nncc(-c4ccc(F)cc4)n3)CC2)CC1 [Example 153] | 7.74
Cn1c(-c2cnnc(N3CCOCC3)n2)cc2ccccc21 [Example 211, 5-(1-methyl-1H-indol-2-yl)-3-morpholino-1,2,4-triazine] | 8.62
NC(=O)N1CCC(O)(CNC(=O)CN2CCN(c3nncc(-c4ccc(Cl)cc4)n3)CC2)CC1 [Example 59] | 7.72
O=C1NCC2(CCN(c3nncc(-c4ccc5ccccc5c4)n3)CC2)O1 [Example 199] | 7.92
Cc1ccc(-c2cnnc(N3CCN(CC(=O)N[C@H]4CC[C@H](S(C)(=O)=O)CC4)CC3)n2)cc1 [Example 50] | 8.20
O=C(CN1CCN(c2nncc(-c3ccc(F)cc3)n2)CC1)N[C@H]1CC[C@H](N2CCOCC2)CC1 [Example 28] | 8.08
CN1CCNC(=O)C12CCC(NC(=O)CN1CCN(c3nncc(-c4ccc(F)cc4)n3)CC1)CC2 (stereo not drawn) [Example 82] | 7.92
Cc1ncc(CN2CCC(NC(=O)CN3CCN(c4nncc(-c5ccc(F)cc5)n4)CC3)CC2)[nH]1 [Example 147] | 7.74
CN(C)[C@H]1CC[C@H](NC(=O)CN2CCN(c3nncc(-c4ccc(Cl)cc4)n3)CC2)CC1 [Example 18] | 8.10
c1ccc(COc2cnnc(N3CCOCC3)n2)cc1 [Example 256, 5-benzyloxy-3-morpholino-1,2,4-triazine] | 7.59
c1nnc(N2CCOCC2)nc1CC1CCCCC1 [Example 233, 5-cyclohexylmethyl-3-morpholino-1,2,4-triazine] | 7.70
O=C(CN1CCN(c2nncc(-c3ccc(F)cc3)n2)CC1)NC1CCN(CC(=O)N2CCOCC2)CC1 [Example 38] | 7.85
Cc1ccccc1-c1cnnc(C2CCCN(c3ncccn3)C2)n1 (stereo not drawn) [Example 244, 3-[1-(pyrimidine-2-yl)-piperidin-3-yl]-5-(o-tolyl)-1,2,4-triazine] | 7.96
O=C(CN1CCN(c2nncc(-c3ccc(F)cc3)n2)CC1)NC1CCN(CC2=NCCN2)CC1 [Example 151, 3-[4-[[1-[(4,5-dihydro-1H-imidazol-2-yl)methyl]piperidin-4-yl]carbamoylmethyl]piperazin-1-yl]-5-(4-fluorophenyl)-1,2,4-triazine] | 7.80

SMILES | pIC50
O=C(CN1CCN(c2nncc(-c3ccc(F)cc3)n2)CC1)NCCN1CCS(=O)(=O)CC1 [Example 47] | 7.96
O=C(CN1CCN(c2nncc(-c3ccc(Cl)cc3)n2)CC1)NC1CCS(=O)(=O)CC1 [Example 27] | 7.89
Cc1ccccc1-c1cnnc(N2CC[C@@H](Oc3ccncc3)C2)n1 [Example 188] | 8.22
CN(CCCS(C)(=O)=O)c1nncc(-c2ccc3ccccc3c2)n1 [Example 192] | 7.42
Cc1ccc(-c2cnnc(N3CCN(CC(=O)NC4CCN(CCNS(C)(=O)=O)CC4)CC3)n2)cc1 [Example 62] | 8.00
O=C(CN1CCN(c2nncc(-c3ccc(C(F)(F)F)cc3)n2)CC1)NC1CC2COCC(C1)C2O (stereo not drawn) [Example 157a, 3-[4-[[(7-exo-9-endo)-9-hydroxy-3-oxabicyclo[3.3.1]nonan-7-yl]carbamoylmethyl]piperazin-1-yl]-5-(4-trifluoromethylphenyl)-1,2,4-triazine] | 7.85
CO[C@H]1CC[C@H](NC(=O)CN2CCN(c3nncc(-c4ccc5c(cnn5C)c4)n3)CC2)CC1 [Example 19] | 7.77
CNC(=O)CN1CCC(NC(=O)CN2CCN(c3nncc(-c4ccc(F)cc4)n3)CC2)CC1 [Example 44] | 7.77
O=C1CN([C@H]2CC[C@H](NC(=O)CN3CCN(c4nncc(-c5ccc(F)cc5)n4)CC3)CC2)CCN1 [Example 26] | 8.07
CNC(=O)CN1CCC(NC(=O)CN2CCN(c3nncc(-c4ccc(C)cc4)n3)CC2)CC1 [Example 85] | 8.00
CC(=O)N1CCC(CNc2nncc(-c3ccc4ccccc4c3)n2)CC1 [Example 196] | 7.17
CNC(=O)CO[C@H]1CC[C@H](NC(=O)CN2CCN(c3nncc(-c4ccc(F)cc4)n3)CC2)CC1 [Example 55] | 8.06
Cc1ccccc1-c1cnnc(N2CCN(c3ccc(F)cc3)CC2)n1 [Example 170, 3-[4-(4-fluorophenyl)piperazin-1-yl]-5-(o-tolyl)-1,2,4-triazine] | 7.64
Cc1ccccc1-c1cnnc(N(Cc2ccccn2)S(C)(=O)=O)n1 [Example 236, 3-[N-(methylsulfonyl)-N-(2-pyridylmethyl)amino]-5-(o-tolyl)-1,2,4-triazine] | 7.64
CN(C)[C@H]1CC[C@H](NC(=O)C(O)C2CCN(c3nncc(-c4ccc(F)cc4)n3)CC2)CC1 (relative stereo) [Example 252, 3-[4-[[[trans-4-(dimethylamino)cyclohexyl]carbamoyl]hydroxymethyl]piperidino]-5-(4-fluorophenyl)-1,2,4-triazine] | 7.82
Cc1nc[nH]c1CN1CCC(NC(=O)CN2CCN(c3nncc(-c4ccc(Cl)cc4)n3)CC2)CC1 [Example 154] | 8.96
Cc1ccccc1-c1cnnc(N2CCC(CCCO)CC2)n1 [Example 183] | 9.15

Continued, values first:

pIC50 | SMILES
9.30 | Cc1ccccc1-c1cnnc(N2CCN(CC(=O)Nc3cccnc3)CC2)n1 [Example 86]
8.21 | C[C@H]1COCCC1NC(=O)CN1CCN(c2nncc(-c3ccc(Cl)cc3)n2)CC1 (stereo partly drawn) [compound 161]
8.14 | CN1CC[C@H](NC(=O)CN2CCN(c3nncc(-c4ccc(Cl)cc4)n3)CC2)CC1=O [Example 54]
8.57 | CNC(=O)Cn1cc(NC(=O)CN2CCN(c3nncc(-c4ccc(Cl)cc4)n3)CC2)cn1 [Example 81]
8.21 | CC(C)NC(=O)NC1CCN(c2nncc(-c3ccc(F)cc3)n2)CC1 [Example 180]
8.12 | Cc1ccc(-c2cnnc(N3CCN(CC(=O)Nc4cnn(CC(=O)N(C)C)c4)CC3)n2)cc1 [Example 75]
8.51 | CC(C)NC(=O)CN1CCN(c2nncc(-c3ccc4c(c3)CCO4)n2)CC1 [Example 219]
8.05 | CC(=O)N[C@H]1CC[C@H](NC(=O)CN2CCN(c3nncc(-c4ccc(C)cc4)n3)CC2)CC1 [Example 48]
8.62 | CC(C)NC(=O)CN1CCN(c2nncc(-c3ccc(C(F)(F)F)cc3)n2)CC1 [Example 221]
8.21 | CN(C)C(=O)Cn1cc(NC(=O)CN2CCN(c3nncc(-c4ccc(F)cc4)n3)CC2)cn1 [Example 71]
8.35 | CN(C)C(=O)Cn1cc(NC(=O)CN2CCN(c3nncc(-c4ccc(Cl)cc4)n3)CC2)cn1 [Example 76]
7.54 | CC(C)NC(=O)CN1CCN(c2nncc(-c3ccc(C#N)nc3)n2)CC1 [Example 215, 5-(2-cyano-5-pyridyl)-3-[4-(isopropylcarbamoylmethyl)piperazin-1-yl]-1,2,4-triazine]
7.59 | CC(C)NC(=O)CN1CCN(c2nncc(-c3ccc4c(c3)CNN4C)n2)CC1 [Example 222]
7.80 | CC(C)[C@@H](CO)NC(=O)CN1CCN(c2nncc(-c3ccc(C(F)(F)F)cc3)n2)CC1 [Example 16]
8.11 | CN1CCO[C@@H](CNC(=O)CN2CCN(c3nncc(-c4ccc(F)cc4)n3)CC2)C1 [Example 159a, 5-(4-fluorophenyl)-3-[4-[[(4-methylmorpholyn-2-yl)methyl]carbamoylmethyl]piperazin-1-yl]-1,2,4-triazine]
7.89 | CN(C)[C@@H]1CCC[C@H](NC(=O)CN2CCN(c3nncc(-c4ccc(F)cc4)n3)CC2)C1 [compound 160]
8.01 | CC(C)NC(=O)CN1CCN(c2nncc(-c3cccc4c3COCC4)n2)CC1 [Example 218]
7.70 | CC(C)NC(=O)CN1CCN(c2nncc(-c3ccc4ncsc4c3)n2)CC1 [Example 220]
8.12 | CC(C)CC(=O)NN1CCN(c2nncc(-c3ccc(Cl)cc3)n2)CC1 [Example 251, 5-(4-chlorophenyl)-3-[4-[(3-methylbutanoyl)amino]piperazin-1-yl]-1,2,4-triazine]
8.35 | CNC(=O)Cn1cc(NC(=O)CN2CCN(c3nncc(-c4ccc(C)cc4)n3)CC2)cn1 [Example 79]
8.35 | CNC(=O)Cn1cc(NC(=O)CN2CCN(c3nncc(-c4ccc(F)cc4)n3)CC2)cn1 [Example 80]
7.60 | CN1CC[C@H](NC(=O)CN2CCN(c3nncc(-c4ccc5c(c4)COC5)n3)CC2)CC1=O [Example 84]
